Laboratory results from patent publication US6753329B2, “Inhibitors of cyclin-dependent kinases, compositions and uses related thereto” (GPC Biotech Inc., priority 2001, dated 2004).
pIC50, pKd: −log10 of the molar value. Like-named read-outs stand apart in the source and are kept apart here.

Experiments:
CDK2/cyclinE [1] = biological target: T1, CDK2/cyclinE (Homo sapiens, UniProt P24941); assay: Cdk2/cyclin E inhibition, glutathione-sepharose capture assay; format: biochemical; set-up: made in house; host or cells: Sf9 insect cells; conditions: 50 μM ATP, GST-Rb substrate; read-out: K2/E
Source text: (§1) Enzymes: Cdc2/cyclin B was obtained from commercial sources. Cdk2/his-cyclin Eshort was expressed in Sf9 cells. Cdk2/cyclin A, cdk4/cyclin D1, and cdk6/cyclin D2 were expressed in Sf9 cells. Protein kinase A (catalytic subunit, from bovine heart) and protein kinase C (mixed isozymes from rat brain) were obtained from commercial sources.
(§2) Substrates: Histone H1 was from commercial sources. GST-Rb is glutathione-S-transferase fused to the N-terminal of residues 379-928 of the Rb protein.
(§3) Cdk2/cyclin E, Cdk4/cyclin D1, and Cdk6/cyclin D2 activity was determined using a glutathione-sepharose capture assay. The enzymes were expressed in Sf9 insect cells as heterodimers, and the substrate (GST-Rb) was glutathione-S-transferase fused to residues 379 to 928 of Rb retinoblastoma protein, expressed in E. coli. The assay solution contained 50 mM Tris.HCl, 10 mM MgCl2, 1 mM dithiothreitol, 50 μM adenosine triphosphate, 2 μCi [γ-^33P]adenosine triphosphate, 10% dimethylsulfoxide (from compounds), pH 7.5, 40 µg GST-Rb, and enzyme in a 100 μL volume. Compounds were added at various concentrations between 1 nM and 10 μM. The reaction was allowed to proceed for 15 min at 30° C. and was stopped by the addition of 70 μL of stop solution (237 mM disodium ethylenediamine tetraacetate, 105 mM adenosine triphosphate, pH 8.0). The GST-Rb was captured by binding to glutathione-sepharose bead (Amersham) for 110 min, and the suspension was filtered through a glass fiber filter. After washing the retained beads five time with phosphate-buffered saline containing 0.3% (w/v) Tween-20, the amount of ^33P incorporated was determined by scintillation counting after adding 100 μL scintillant. Relative activity was determined by dividing the amount of radioactivity incorporated in the presence of compound by the amount of radioactivity incorporated in a control experiment containing DMSO alone but no compound. The background radioactivity, determined in an experiment containing 50 mM disodium ethylenediamine tetraacetate in place of compound, was subtracted from all results before calculations.

Cdk6/cyclin D2 = biological target: T2, Cdk6/cyclin D2 (Homo sapiens, UniProt Q00534); assay: Cdk6/cyclin D2 inhibition, glutathione-sepharose capture assay; format: biochemical; conditions: 50 μM ATP, GST-Rb substrate; read-out: K6/D2
T2 construct: made in house; host or cells: Sf9 insect cells
T2 sequence (Q00534 whole entry, species assumed): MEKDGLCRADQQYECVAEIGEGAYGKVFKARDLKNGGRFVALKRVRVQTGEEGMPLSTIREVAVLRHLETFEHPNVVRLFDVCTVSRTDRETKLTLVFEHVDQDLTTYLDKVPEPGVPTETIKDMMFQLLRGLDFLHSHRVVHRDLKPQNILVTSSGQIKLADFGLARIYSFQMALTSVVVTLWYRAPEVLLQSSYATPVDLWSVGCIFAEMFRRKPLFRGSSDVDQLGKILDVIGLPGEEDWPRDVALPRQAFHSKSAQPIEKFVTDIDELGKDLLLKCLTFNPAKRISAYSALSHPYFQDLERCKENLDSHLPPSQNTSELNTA
T2 sequence (P30279 whole entry partner, species assumed): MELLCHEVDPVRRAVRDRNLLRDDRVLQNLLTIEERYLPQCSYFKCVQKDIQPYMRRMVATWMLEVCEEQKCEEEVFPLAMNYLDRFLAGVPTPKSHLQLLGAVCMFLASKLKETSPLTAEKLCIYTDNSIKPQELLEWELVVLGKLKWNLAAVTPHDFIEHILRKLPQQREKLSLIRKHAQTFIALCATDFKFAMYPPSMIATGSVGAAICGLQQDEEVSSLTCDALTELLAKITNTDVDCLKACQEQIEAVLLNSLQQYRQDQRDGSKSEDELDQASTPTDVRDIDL
Source text: as §1, §2, §3

Cdk4/cyclin D1 = biological target: T3, Cdk4/cyclin D1 (Homo sapiens, UniProt P11802); assay: Cdk4/cyclin D1 inhibition, glutathione-sepharose capture assay; format: biochemical; conditions: read-out: K4/D1
T3 construct: made in house; host or cells: Sf9 insect cells
T3 sequence (P11802 whole entry, species assumed): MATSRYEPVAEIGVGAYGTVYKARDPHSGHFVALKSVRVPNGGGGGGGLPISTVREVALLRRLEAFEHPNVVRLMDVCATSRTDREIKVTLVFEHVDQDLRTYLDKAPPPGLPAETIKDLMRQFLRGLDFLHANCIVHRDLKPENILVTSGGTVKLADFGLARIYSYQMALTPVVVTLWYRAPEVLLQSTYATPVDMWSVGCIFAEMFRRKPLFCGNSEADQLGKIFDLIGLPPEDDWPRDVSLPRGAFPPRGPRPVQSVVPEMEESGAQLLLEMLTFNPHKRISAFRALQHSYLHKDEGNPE
T3 sequence (P24385 whole entry partner, species assumed): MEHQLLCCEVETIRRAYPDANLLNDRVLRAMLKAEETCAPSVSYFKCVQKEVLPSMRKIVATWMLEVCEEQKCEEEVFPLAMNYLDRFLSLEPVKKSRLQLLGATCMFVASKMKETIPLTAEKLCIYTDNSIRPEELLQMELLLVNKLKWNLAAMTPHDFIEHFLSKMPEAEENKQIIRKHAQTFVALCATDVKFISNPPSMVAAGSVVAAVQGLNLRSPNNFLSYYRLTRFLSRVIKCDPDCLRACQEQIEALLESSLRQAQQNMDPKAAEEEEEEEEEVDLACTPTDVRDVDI
Source text: as §1, §2, §3

Cdk2/cyclin A = biological target: T4, Cdk2/cyclin A (Homo sapiens, UniProt P24941); assay: Cdk2/cyclin A inhibition assay; format: biochemical; conditions: read-out: K2/A
T4 construct: made in house; host or cells: Sf9 cells
Source text: as §1

Cdc2/cyclin B = biological target: T5, Cdc2/cyclin B (Homo sapiens, UniProt P06493); assay: Cdc2/cyclin B inhibition, TCA precipitation assay; format: biochemical; conditions: 50 μM ATP, Histone H1 substrate
T5 construct: purchased
T5 sequence (P06493 whole entry, species assumed): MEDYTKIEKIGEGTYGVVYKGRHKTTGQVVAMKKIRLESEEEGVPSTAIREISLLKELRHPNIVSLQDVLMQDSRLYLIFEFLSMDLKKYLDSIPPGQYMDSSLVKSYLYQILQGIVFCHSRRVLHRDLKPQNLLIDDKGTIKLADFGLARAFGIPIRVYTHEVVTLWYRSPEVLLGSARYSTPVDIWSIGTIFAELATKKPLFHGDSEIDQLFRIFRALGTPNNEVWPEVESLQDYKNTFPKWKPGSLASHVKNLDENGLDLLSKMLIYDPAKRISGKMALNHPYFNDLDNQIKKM
T5 sequence (P14635 whole entry partner, species assumed): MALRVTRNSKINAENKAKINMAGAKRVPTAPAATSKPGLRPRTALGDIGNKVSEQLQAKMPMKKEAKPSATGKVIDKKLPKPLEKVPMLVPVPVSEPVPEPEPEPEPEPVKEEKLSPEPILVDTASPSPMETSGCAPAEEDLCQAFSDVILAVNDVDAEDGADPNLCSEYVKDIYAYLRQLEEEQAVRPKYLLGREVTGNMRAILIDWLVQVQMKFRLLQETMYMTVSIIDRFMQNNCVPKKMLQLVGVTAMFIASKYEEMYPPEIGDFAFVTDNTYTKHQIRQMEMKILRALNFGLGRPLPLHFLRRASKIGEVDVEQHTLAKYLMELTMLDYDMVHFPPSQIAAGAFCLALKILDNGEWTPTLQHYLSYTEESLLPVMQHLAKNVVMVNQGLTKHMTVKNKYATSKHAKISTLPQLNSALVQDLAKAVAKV
Description: as §1
Assays: Cdc2/cyclinB activity was determined by measuring incorporation of radioactivity from adenosine [γ-^32P]triphosphate into Histone H1 using a TCA precipitation assay. Cdc2/cyclin B kinase and Histone H1 were obtained from commercial sources. The final assay solution contained 50 mM Tris.HCl, 10 mM MgCl2, 1 mM dithiothreitol, 50 μM adenosine triphosphate, 2 μCi ^32P, 10% dimethylsulfoxide (from compounds), pH 7.5, 20 μg Histone H1, 6 U enzyme in a 50 μL volume. Compounds were added at various concentrations between 1 nM and 10 μM. The reaction was started with the addition of enzyme, allowed to proceed for 20 min at 30° C., and stopped by the addition of 20 μL of stop solution (237 mM disodium ethylenediamine tetraacetate, 105 mM adenosine triphosphate, pH 8.0). The protein was precipitated by the addition of 35 μL 70% (w/v) trichloroacetic acid, and the precipitate was captured on a 96-well glass fiber filter plate (Millipore, Inc.), which had been wet with 25% (w/v) trichloroacetic acid. The filter was washed ten times with 25% (w/v) trichloroacetic acid, and the amount of incorporated ^32P was determined by scintillation counting after adding 100 μL scintillant (Microscint 20, Packard Instruments). Relative activity was determined by dividing the amount of radioactivity incorporated in the presence of compound by the amount of radioactivity incorporated in a control experiment containing DMSO alone but no compound. The background radioactivity, determined in an experiment containing 50 mM EDTA in place of compound, was subtracted from all results before calculations.
P=min+(max−min)(1/(1+(IC50/[I])^s)) (1)
where P=1—relative activity is relative inhibition, [I] is concentration of compound, max and min are the maximum and minimum relative inhibition (1 and 0, respectively) and s is the so-called Hill slope.

[2] = biological target: T6, Protein kinase A (catalytic subunit, from bovine heart) (Bos taurus, UniProt P00517); assay: Protein kinase A inhibition, TCA precipitation assay; format: biochemical; conditions: 12 μM ATP, Histone H1; read-out: PKA
T6 construct: Protein kinase A (catalytic subunit, from bovine heart); purchased; host or cells: bovine heart
Description: as §1
Protein kinase C and protein kinase A were assayed using a TCA precipitation assay with Histone H1 as a substrate. For protein kinase A, the final assay contained 50 mM Tris, 10 mM MgCl2, 1 mM dithiothreitol, pH 7.5, 12 μM adenosine triphosphate, 10% (v/v) dimethylsulfoxide (from compounds), 20 μg Histone H1, 2 μCi [γ-^32P] adenosine triphosphate, 0.2 U protein kinase A in a 100 μL assay. A protein kinase C assay contained 50 mM Tris, 10 mM MgCl2, 1 mM dithiothreitol, 0.8 mM CaCl2, pH 7.5, 5 μM adenosine triphosphate, 10% (v/v) dimethylsulfoxide (from compounds), 20 μg Histone H1, 2 μCi [γ-^32P] adenosine triphosphate, 0.01 U protein. kinase C in a 50 μL assay. The assays were started by the addition of enzyme, allowed to react for 10 min at 30° C., and stopped by adding 0.4 volumes of 237 mM disodium ethylenediamine tetraacetate, 105 mM adenosine triphosphate, pH 8.0. The protein was precipitated from the stopped reaction by adding 0.5 volume 75% (w/v) trichloroacetic acid and captured by filtering through a 96-well glass fiber filtration apparatus (Millipore). The filters were washed ten times with 25% (w/v) trichloroacetic acid, and the amount of incorporated [^32P]phosphate was determined by adding 100 μl Microscint and scintillation counting.

c-Abl = c-Abl (Homo sapiens, UniProt P00519); assay: c-Abl inhibition; format: biochemical
c-Abl, sequence (P00519 whole entry): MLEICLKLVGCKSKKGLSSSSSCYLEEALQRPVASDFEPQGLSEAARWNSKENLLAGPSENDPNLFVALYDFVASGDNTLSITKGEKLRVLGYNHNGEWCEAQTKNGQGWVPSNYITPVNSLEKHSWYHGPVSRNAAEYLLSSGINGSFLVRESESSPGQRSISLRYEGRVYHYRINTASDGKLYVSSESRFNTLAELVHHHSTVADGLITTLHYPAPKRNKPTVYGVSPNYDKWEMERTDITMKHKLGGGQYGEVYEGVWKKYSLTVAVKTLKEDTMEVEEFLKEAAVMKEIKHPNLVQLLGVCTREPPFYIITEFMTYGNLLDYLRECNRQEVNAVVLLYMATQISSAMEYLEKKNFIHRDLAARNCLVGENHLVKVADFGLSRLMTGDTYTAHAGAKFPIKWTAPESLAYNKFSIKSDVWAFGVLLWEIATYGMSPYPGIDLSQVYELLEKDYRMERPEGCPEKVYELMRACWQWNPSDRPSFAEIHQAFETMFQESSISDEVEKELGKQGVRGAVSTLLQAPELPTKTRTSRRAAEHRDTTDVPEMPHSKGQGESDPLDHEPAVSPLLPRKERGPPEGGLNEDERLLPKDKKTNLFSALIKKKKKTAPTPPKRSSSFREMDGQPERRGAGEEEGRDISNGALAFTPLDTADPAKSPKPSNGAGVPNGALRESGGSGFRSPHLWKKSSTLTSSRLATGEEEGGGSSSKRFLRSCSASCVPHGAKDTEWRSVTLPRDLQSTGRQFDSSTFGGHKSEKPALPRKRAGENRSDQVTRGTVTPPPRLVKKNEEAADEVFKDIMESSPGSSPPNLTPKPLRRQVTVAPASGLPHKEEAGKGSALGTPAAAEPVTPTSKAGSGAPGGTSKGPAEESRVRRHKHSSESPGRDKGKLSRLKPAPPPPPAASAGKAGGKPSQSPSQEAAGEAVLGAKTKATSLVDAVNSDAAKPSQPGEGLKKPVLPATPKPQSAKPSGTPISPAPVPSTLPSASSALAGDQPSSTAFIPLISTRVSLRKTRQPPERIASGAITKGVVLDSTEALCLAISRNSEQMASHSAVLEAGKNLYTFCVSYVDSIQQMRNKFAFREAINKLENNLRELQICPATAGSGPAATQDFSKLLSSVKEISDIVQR

CDK2/cyclinE [3] = biological target: T1, CDK2/cyclinE; assay: BIACORE SPR binding of CDK2/cyclinE to compound-loaded CM5 chip; conditions: 22° C., compound coupled to CM5 chip, Langmuir 1:1 model
Description: The affinity of chemical compounds to their corresponding binding partners may be determined, for example, using a BIACORE™ assay system (Biacore AB, Uppsala, SE). Other systems yielding a qualitatively similar result, such as, for example, those developed by Affinity Sensors (Cambridge, UK), will be readily apparent to those skilled in the art.
In a representative procedure, the binding of Compound R to its known binding partners CDK2/cyclinE was analyzed. The analysis was performed on a BLACORE 2000 SPR-Biosensor at 22° C. in a running buffer containing 20 mM HEPES (pH 7.4), 150 mM NaCl, 1 mM DTT and 0.005% Tween 20 (protein grade, Calbiochem). A 10 μM solution of Compound R was coupled at pH 8.0 to the dextrane-surface of a CM5 sensor-chip (research grade) via amide coupling chemistry. […] The association and dissociation of the CDK2/cyclinE complex onto the CM5-Compound R-loaded chip surface was measured at a flow rate of 30 μl/min. […]
The data were analyzed using the Bioevaluation software version 3.1 (Biacore AB, Uppsala, SE). […] The association and dissociation rates were determined separately or globally using a Langmuir 1:1 binding model. The affinities (KD) were calculated using the equation: […]

Row | Structure (SMILES) | pIC50 (CDK2/cyclinE [1]) | pIC50 (Cdk6/cyclin D2) | pIC50 (Cdk4/cyclin D1; 50 μM ATP, GST-Rb substrate) | pIC50 (Cdk4/cyclin D1) | pIC50 (Cdk2/cyclin A) | pIC50 (Cdc2/cyclin B) | pIC50 [2] | pIC50 (c-Abl) | pKd (CDK2/cyclinE [3])
1 | CC(C)c1nn(-c2c(Cl)cc(Cl)cc2Cl)c2nc(Cc3ccc(OCCN4CCOCC4)cc3)[nH]c(=O)c12 [A] | > 7.00 | > 6.00 | > 6.00 | > 6.00 | > 7.00 | > 6.00 |  |  | 
2 | CC(C)c1nn(-c2c(Cl)cccc2Cl)c2nc(Cc3ccc(OP(=O)(O)O)cc3)[nH]c(=O)c12 [B] | > 8.00 |  | > 5.00 |  | > 7.00 | > 7.00 |  |  | 
3 | CC(C)c1nn(-c2c(Cl)cccc2Cl)c2nc(Cc3ccc(O)c(CN4CCN(C(C)C)CC4)c3)[nH]c(=O)c12 [Compound C] | > 7.00 |  | > 6.00 |  | > 7.00 | > 6.00 | < 5.00 | < 5.00 | 
4 | O=C(Nc1cccc2c1C(=O)c1c-2n[nH]c1-c1ccc(OCCN2CCCC2)cc1)NN1CCOCC1 [Compound I] | > 7.00 |  | > 8.00 |  | > 7.00 | > 7.00 |  |  | 
5 | Cc1cc(-c2[nH]nc3c2C(=O)c2c(NC(=O)NN4CCN(C)CC4)cccc2-3)ccc1OCCN1CCCC1 [Compound P] | > 7.00 |  |  |  |  |  |  |  | 
6 | CC(C)c1nn(-c2c(Cl)cc(Cl)cc2Cl)c2nc(Cc3ccc(OC(C)(C)C(=O)NCCOCCOCCOCCOCCOCCN)cc3)[nH]c(=O)c12 [Compound R] |  |  |  |  |  |  |  |  | 8.10
7 | CC(C)c1nn(-c2c(Cl)cc(Cl)cc2Cl)c2nc(Cc3ccc(NS(=O)(=O)CCCN4CCOCC4)cc3)[nH]c(=O)c12 [D] | > 7.00 |  | > 6.00 |  | > 7.00 | > 6.00 |  |  | 
8 | CC(C)N1CCN(CCOc2ccc(-c3[nH]nc4c3C(=O)c3c(NC(=O)NN5CCOCC5)cccc3-4)cc2)CC1 [E] | > 8.00 | > 8.00 | > 8.00 | > 8.00 | > 8.00 | > 7.00 | > 5.00 | > 5.00 | 
9 | CN1CCN(NC(=O)Nc2cccc3c2C(=O)c2c-3n[nH]c2-c2ccc(OCCN3CCCC3)cc2)CC1 [F] | > 7.00 | > 8.00 | > 8.00 | > 8.00 | > 7.00 | > 7.00 |  |  | 
10 | CCCN(CCOc1ccc(-c2[nH]nc3c2C(=O)c2c(NC(=O)NN4CCOCC4)cccc2-3)cc1)CC1CC1 [G] | > 7.00 |  | > 8.00 |  | > 7.00 | > 7.00 | < 5.00 | < 5.00 | 
11 | O=C(Nc1cccc2c1C(=O)c1c-2n[nH]c1-c1ccc(OCCN(CCO)CCO)cc1)NN1CCOCC1 [H] | > 7.00 |  | > 7.00 |  | > 7.00 | > 7.00 |  |  | 
12 | O=C(Nc1cccc2c1C(=O)c1c-2n[nH]c1-c1ccc(OP(=O)(O)O)cc1)NN1CCOCC1 [J] | > 7.00 |  |  |  |  |  |  |  | 
13 | CC(C)N1CCN(Cc2cc(-c3[nH]nc4c3C(=O)c3c(NC(=O)NN5CCOCC5)cccc3-4)ccc2O)CC1 [K] | > 7.00 |  |  |  |  |  |  |  | 
14 | Cc1cc(OCCN2CCCC2)ccc1-c1[nH]nc2c1C(=O)c1c(NC(=O)NN3CCN(C)CC3)cccc1-2 [L] | > 7.00 |  | > 7.00 |  |  | > 7.00 |  |  | 
15 | CN1CCN(NC(=O)Nc2cccc3c2C(=O)c2c-3n[nH]c2-c2ccc(OCCN3CCC[C@H]3CO)cc2)CC1 [M] | > 7.00 |  |  |  |  |  |  |  | 
16 | CN1CCN(NC(=O)Nc2cccc3c2C(=O)c2c-3n[nH]c2-c2ccc(OCCN(CCO)CCO)cc2)CC1 [N] | > 7.00 |  |  |  |  | > 8.00 |  |  | 
17 | CN1CCN(NC(=O)Nc2cccc3c2C(=O)c2c-3n[nH]c2-c2ccc(OCCN3CC[C@H](O)C3)cc2)CC1 [O] | > 7.00 |  |  |  |  |  |  |  | 
18 | CN1CCN(NC(=O)Nc2cccc3c2C(=O)c2c-3n[nH]c2-c2ccc(OCCN3CCOCC3)cc2)CC1 [Q] | > 8.00 | > 7.00 | > 8.00 | > 7.00 | > 7.00 | > 7.00 |  |  | 
